Assays:
CAPAN-1 cells = assay: Cell proliferation assay, ASO and/or drug (cell counting); type: cell-based, human; conditions: CAPAN-1 with mutated, non-functional BRCA2; FIG. 52
Experimental: A: BRCA2-wild type SKOV-3 cells (black bars), […] MCF-7 cells (white bars), and BRCA2-mutated CAPAN-1 cells (grey bars) were treated simultaneously but separately with BRCA2 ASO (20 nM). Due to differing growth medium requirements and to avoid fluorescent label-induced changes in drug sensitivity, cells were not co-cultured. They were treated independently, at the same time with the same materials. Ninety-six hours post-transfection, cells were counted and proliferation determined (% of proliferation after control ASO treatment).
C: SKOV-3, MCF-7 and CAPAN-1 cells were treated with two different concentrations of olaparib for 96 hours. After drug treatment they were counted and proliferation was determined as a percent of that of vehicle-treated cells.
Four hours post-transfection, cells were seeded into 6 well dishes in appropriate experimental groups. Twenty-four hours post transfection, cells were treated with olaparib (Selleckchem) at three concentrations. Ninety-six hours post transfection, cells were collected and counted (Coulter Particle Counter). Proliferation was determined based on initial cell density and calculated as a percentage of ASO+vehicle treated cells.

MDA-MB-231 cells = assay: Cell proliferation assay, ASO transfection then drug (cell counting); type: cell-based, human; conditions: FIG. 49
Experimental: Four hours post-transfection, cells were seeded into 6 well dishes in appropriate experimental groups. […] Ninety-six hours post transfection, cells were collected and counted (Coulter Particle Counter). Proliferation was determined based on initial cell density and calculated as a percentage of ASO+vehicle treated cells.

[1] = system: EPT1 prostate epithelial cells; assay: Veliparib after BR1 pretreatment; type: cell-based; conditions: FIG. 37
[2] = system: DU145 human prostate cancer cells; conditions: BR1 pretreatment; FIG. 37
Experimental: Cells were treated for 4 hours with ASO, after which one volume of medium was added and cells were incubated for a further 20 hours. ASO-containing medium was removed and replaced with fresh medium. Cells were then incubated for 4 days and cell numbers assessed. Proliferation of BR1-treated cells was calculated as a percent of proliferation of non-targeting ASO-treated control cells. Initial cell density varied among cell lines.

SKOV-3 cells = assay: Cell proliferation assay, ASO transfection and/or drug (cell counting); type: cell-based, human; conditions: FIG. 49
Experimental: FIG. 24 illustrates that BRCA2 inhibition sensitizes ovarian cancer and breast cancer cell lines to olaparib treatment. SKOV-3 (A) and CaOV3 (B) cells were transfected with control ASO (•) or BRCA2 ASO (∘) and then treated with three different concentrations of olaparib. Proliferation was determined by cell counting 96 hours post-transfection (*p<0.05). C: BRCA2 mRNA levels were measured by qPCR 24 hours following BRCA2 ASO transfection in SKOV-3, CaOV3, 211 H and H2052 cell lines.
E: SKOV-3 cells were transfected with control or BRCA2 ASO and then treated with olaparib 24 hours post transfection. Ninety-six hours post transfection, cells were counted, plated, and re-transfected with control ASO or BRCA2 ASO and re-treated with olaparib. Cell counts were performed 96 hours post transfection (*p<0.05). […]
A: BRCA2-wild type SKOV-3 cells (black bars), […] MCF-7 cells (white bars), and BRCA2-mutated CAPAN-1 cells (grey bars) were treated simultaneously but separately with BRCA2 ASO (20 nM). […] Ninety-six hours post-transfection, cells were counted and proliferation determined (% of proliferation after control ASO treatment).
C: SKOV-3, MCF-7 and CAPAN-1 cells were treated with two different concentrations of olaparib for 96 hours. After drug treatment they were counted and proliferation was determined as a percent of that of vehicle-treated cells. […]

A549b cells = assay: cells; type: cell-based, human; conditions: for enhancement of cisplatin (words): BR1 ASO pretreatment, FIGS. 38, 50
Experimental: OLIGOs were introduced into cells with the use of Lipofectamine 2000 (LFA2K) (Invitrogen, Burlington, Ontario, Canada). OLIGOs were mixed with LFA2K at a ratio of 0.2 μg/ml per 10 nM OLIGO. The mixture was prepared at 11× the final concentration to which cells were exposed, so that 200 μL was added to 2 mL of medium in which cells were plated. After incubating at room temperature for 20 minutes, according to manufacturer's instructions, the OLIGOs were added to the cell medium. The OLIGO/LFA2K mix was then incubated (37° C.) on the cells for 4 hours, after which a second volume of medium was added. Cells were then incubated for 20 hours. Following this incubation, the OLIGO-containing medium was replaced with OLIGO-free medium.
For cells treated with the drug olaparib, for the purposes of determining whether inhibitory activity was enhanced by the OLIGO pretreatment, olaparib was added at this time, in concentrations of from 0.01 μM to 3 μM. At this point, replicate flasks from the OLIGO-treatment were used to enumerate cell content, as this varied among treatments over the initial 24-hour exposure. This was done so that the effect of treatment with olaparib could be ascertained based on the cell population that was present at the time of initiation of exposure to olaparib. Exposure to the olaparib was initiated by addition of 0.2-volume of a preparation of the drug, at 6× final concentration in growth medium, to the fresh drug-free medium on the cells (1 ml of drug into 5 ml of medium). Following a further 4-day incubation, the proliferation of the treated cells (fold-increase in cell number) was calculated as a percentage of that of control cells. Cell numbers were enumerated on an electronic particle counter (Beckman Coulter, Mississauga, ON). As indicated in Example 1, for the purpose of determining the anti-proliferative effect of antisense OLIGOs alone, the proliferation of cells treated with antisense OLIGOs was calculated as a percent of that of cells treated with an equivalent concentration of non-complementary control OLIGO (in this case OLIGO 32). However, for the purpose of determining the anti-proliferative effect of olaparib against antisense or non-complementary (control) OLIGO-treated cells, the proliferation was calculated as a percent of cells treated with the respective OLIGO.
These experiments were carried out essentially as described in Example 3, with the following changes. The drug tested was cisplatin instead of olaparib, and cisplatin was tested in concentrations ranging from 0.5 μM to 2 μM.
These experiments were carried out essentially as described in Example 3, with the following changes. The drug tested was melphalan in concentrations ranging from 2 μM to 10 μM.
These experiments were carried out essentially as described in Example 3, with the following changes. The drug tested was carboplatin at concentrations ranging from 5 μM to 40 μM.
These experiments were carried out essentially as described in Example 3, with the following changes. The drug tested was oxaliplatin was tested in concentrations ranging from 0.2 μM to 2.5 μM.
Cisplatin was added to the final concentration indicated, and as described in Example 3. Cells were incubated for 4 days, at which time cell number was counted. Proliferation was calculated as a percent of siRNA-treated, non-cisplatin-treated controls.

5′-guaucuCTTGACGTuccuua-3′ (GUAUCUCTTGACGTUCCUUA; gapmer, lower-case wings modified, type not given here) [BR1]
effect on antiproliferative activity of cisplatin (CAPAN-1 cells): no effect on the antiproliferative activity of cisplatin
effect on antiproliferative activity of cisplatin (MDA-MB-231 cells): enhances the antiproliferative activity of cisplatin
enhancement of veliparib [1]: little or not at all
enhancement of veliparib [2]: enhances veliparib
effect on antiproliferative activity of cisplatin (SKOV-3 cells): enhances the antiproliferative activity of cisplatin
enhanced inhibition of proliferation by olaparib (% decrease in the IC50 value) (A549b cells; A549 cells, ASO pre-incubation, FIGS. 34, 35): up to 95%
enhancement of cisplatin (words) (A549b cells; A549 cells): enhances cisplatin
enhancement of cisplatin (words) (A549b cells; A549 cells, listed as BR-1): enhances the antiproliferative activity of cisplatin or melphalan
enhanced the anti-proliferative effect of olaparib (A549b cells; BR1 pretreatment, at a given concentration of olaparib, FIG. 2): over 40%
enhancement of veliparib (A549b cells; BR1 vs ODN 32, A549 cells, FIGS. 36, 37): enhances veliparib

Reference: patent US10907159B2, “Methods of treating cancer by inhibition of DNA repair proteins using antisense based therapies” (SARISSA INC., priority 2015, dated 2021)
